PubChem BioAssay AID2060502 (Molecular Pharmacology Branch, DTP, NCI, 2025)

Tested on: 885724-159-R-J1-PDC complex spheroid viability
Test: Anticancer human tumor 885724-159-R-J1-PDC patient-derived pancreatic adenocarcinoma cell line growth inhibition [GQUAD]
Conditions: for IC50: curve of first compound; for viability, T/C: stronger effect = lower value
Summary of the method: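 Tumor cells were grown as complex spheroids with HUVEC endothelial cells and mesenchymal stem cells as stroma. G-quadruplex stabilizers were combined with targeted agents over half-log dilutions from near the clinical Cmax, or from 10 microM.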

[1] = second compound 0.0316 µM, first compound 0.000999 µM
[2] = second compound 0.0316 µM, first compound 0.00316 µM
[3] = second compound 0.0316 µM, first compound 0.00999 µM
[4] = second compound 0.0316 µM, first compound 0.0316 µM
[5] = second compound 0.0316 µM, first compound 0.0999 µM
[6] = second compound 0.0316 µM, first compound 0.316 µM
[7] = second compound 0.1 µM, first compound 0.000999 µM
[8] = second compound 0.1 µM, first compound 0.00316 µM
[9] = second compound 0.1 µM, first compound 0.00999 µM
[10] = second compound 0.1 µM, first compound 0.0316 µM
[11] = second compound 0.1 µM, first compound 0.0999 µM
[12] = second compound 0.1 µM, first compound 0.316 µM
[13] = second compound 0.316 µM, first compound 0.000999 µM
[14] = second compound 0.316 µM, first compound 0.00316 µM
[15] = second compound 0.316 µM, first compound 0.00999 µM
[16] = second compound 0.316 µM, first compound 0.0316 µM
[17] = second compound 0.316 µM, first compound 0.0999 µM
[18] = second compound 0.316 µM, first compound 0.316 µM
[19] = second compound 1 µM, first compound 0.000999 µM
[20] = second compound 1 µM, first compound 0.00316 µM
[21] = second compound 1 µM, first compound 0.00999 µM
[22] = second compound 1 µM, first compound 0.0316 µM
[23] = second compound 1 µM, first compound 0.0999 µM
[24] = second compound 1 µM, first compound 0.316 µM
[25] = second compound 3.16 µM, first compound 0.000999 µM
[26] = second compound 3.16 µM, first compound 0.00316 µM
[27] = second compound 3.16 µM, first compound 0.00999 µM
[28] = second compound 3.16 µM, first compound 0.0316 µM
[29] = second compound 3.16 µM, first compound 0.0999 µM
[30] = second compound 3.16 µM, first compound 0.316 µM
[31] = second compound 10 µM, first compound 0.000999 µM
[32] = second compound 10 µM, first compound 0.00316 µM
[33] = second compound 10 µM, first compound 0.00999 µM
[34] = second compound 10 µM, first compound 0.0316 µM
[35] = second compound 10 µM, first compound 0.0999 µM
[36] = second compound 10 µM, first compound 0.316 µM
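Also: spheroids exposed to agents for seven days before readout.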
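For viability, T/C in this document: percent of vehicle control viability where 100% = DMSO wells.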

With `Cc1[nH]c2ccccc2c1CCNCc1ccc(/C=C/C(=O)NO)cc1` + Cc1[nH]c2ccc(F)cc2c1-c1nc2c3cccnc3c3ncccc3c2[nH]1 the IC50 (second compound 0.0316 µM) was 271 nM, the IC50 (second compound 0.1 µM) was 305 nM and the IC50 (second compound 0.316 µM) was 281 nM. The IC50 (second compound 1 µM) was 213 nM, the IC50 (second compound 3.16 µM) was < 0.999 nM and the IC50 (second compound 10 µM) was 226 nM. For the same molecule, the viability, T/C [1] was 87%, the viability, T/C [2] was 99% and the viability, T/C [3] was 93.4%. For the same molecule, the viability, T/C [4] was 98.2%, the viability, T/C [5] was 106% and the viability, T/C [6] was 42.8%. For the same molecule, the viability, T/C [7] was 95.9%, the viability, T/C [8] was 90.3% and the viability, T/C [9] was 87.8%. The viability, T/C [10] was 95%, the viability, T/C [11] was 99.6% and the viability, T/C [12] was 48.5%. The viability, T/C [13] was 101%, the viability, T/C [14] was 77.9% and the viability, T/C [15] was 83.1%. The viability, T/C [16] was 81.2%, the viability, T/C [17] was 78.9% and the viability, T/C [18] was 46.4%. It also gave a viability, T/C [19] of 75.5%, a viability, T/C [20] of 60.8% and a viability, T/C [21] of 66.4%. It also gave a viability, T/C [22] of 57.8%, a viability, T/C [23] of 82.2% and a viability, T/C [24] of 40.3%. The viability, T/C [25] was 18.1%, the viability, T/C [26] was 13.1% and the viability, T/C [27] was 19.2%. It also gave a viability, T/C [28] of 11.5%, a viability, T/C [29] of 21.2% and a viability, T/C [30] of 31.6%. The viability, T/C [31] was 68.1%, the viability, T/C [32] was 75.2% and the viability, T/C [33] was 64%. It also gave a viability, T/C [34] of 69.7%, a viability, T/C [35] of 81.6% and a viability, T/C [36] of 41.2%.
For `CC[C@@]1(O)C(=O)OCc2c1cc1n(c2=O)Cc2cc3c(CN(C)C)c(O)ccc3nc2-1` + Cc1cnc(CNC(=O)c2c(=O)c3ccc(N4CCCN(C)CC4)nc3n3c2sc2ccccc23)cn1, the IC50 (second compound 0.0316 µM) was > 316 nM, the IC50 (second compound 0.1 µM) was > 316 nM and the IC50 (second compound 0.316 µM) was > 316 nM. For the same molecule, the IC50 (second compound 1 µM) was > 316 nM, the IC50 (second compound 3.16 µM) was > 316 nM and the IC50 (second compound 10 µM) was > 316 nM. It also gave a viability, T/C [1] of 117%, a viability, T/C [2] of 95.5% and a viability, T/C [3] of 103%. For the same molecule, the viability, T/C [4] was 106%, the viability, T/C [5] was 89.1% and the viability, T/C [6] was 65.5%. The viability, T/C [7] was 125%, the viability, T/C [8] was 98.7% and the viability, T/C [9] was 101%. The viability, T/C [10] was 103%, the viability, T/C [11] was 85.5% and the viability, T/C [12] was 75.2%. It also gave a viability, T/C [13] of 96.1%, a viability, T/C [14] of 104% and a viability, T/C [15] of 87.6%. For the same molecule, the viability, T/C [16] was 95%, the viability, T/C [17] was 100% and the viability, T/C [18] was 70.1%. The viability, T/C [19] was 88.6%, the viability, T/C [20] was 84.1% and the viability, T/C [21] was 95.2%. For the same molecule, the viability, T/C [22] was 80.3%, the viability, T/C [23] was 87.8% and the viability, T/C [24] was 70.3%. For the same molecule, the viability, T/C [25] was 74.8%, the viability, T/C [26] was 69.5% and the viability, T/C [27] was 75%. The viability, T/C [28] was 75.9%, the viability, T/C [29] was 73.9% and the viability, T/C [30] was 64.5%. For the same molecule, the viability, T/C [31] was 70.7%, the viability, T/C [32] was 81.1% and the viability, T/C [33] was 72.7%. The viability, T/C [34] was 74.2%, the viability, T/C [35] was 80% and the viability, T/C [36] was 69.1%.
In the case of `C=CCn1c(=O)c2cnc(Nc3ccc(N4CCN(C)CC4)cc3)nc2n1-c1cccc(C(C)(C)O)n1` + Cc1cnc(CNC(=O)c2c(=O)c3ccc(N4CCCN(C)CC4)nc3n3c2sc2ccccc23)cn1, the IC50 (second compound 0.0316 µM) is reported as > 10000 nM, the IC50 (second compound 0.1 µM) is reported as > 10000 nM and the IC50 (second compound 0.316 µM) is reported as > 10000 nM. For the same molecule, the IC50 (second compound 1 µM) was > 10000 nM, the IC50 (second compound 3.16 µM) was > 10000 nM and the IC50 (second compound 10 µM) was > 10000 nM. The viability, T/C [4] was 105%, the viability, T/C (second compound 0.0316 µM, first compound 0.1 µM) was 106% and the viability, T/C [6] was 100%. The viability, T/C (second compound 0.0316 µM, first compound 1 µM) was 97.1%, the viability, T/C (second compound 0.0316 µM, first compound 3.16 µM) was 78.4% and the viability, T/C (second compound 0.0316 µM, first compound 10 µM) was 91.5%. For the same molecule, the viability, T/C [10] was 109%, the viability, T/C (second compound 0.1 µM, first compound 0.1 µM) was 132% and the viability, T/C [12] was 99.7%. It also gave a viability, T/C (second compound 0.1 µM, first compound 1 µM) of 93.9%, a viability, T/C (second compound 0.1 µM, first compound 3.16 µM) of 85.9% and a viability, T/C (second compound 0.1 µM, first compound 10 µM) of 83.3%. For the same molecule, the viability, T/C [16] was 106%, the viability, T/C (second compound 0.316 µM, first compound 0.1 µM) was 102% and the viability, T/C [18] was 100%. It also gave a viability, T/C (second compound 0.316 µM, first compound 1 µM) of 91.1%, a viability, T/C (second compound 0.316 µM, first compound 3.16 µM) of 89.9% and a viability, T/C (second compound 0.316 µM, first compound 10 µM) of 90%. It also gave a viability, T/C [22] of 100%, a viability, T/C (second compound 1 µM, first compound 0.1 µM) of 78.2% and a viability, T/C [24] of 82.8%. For the same molecule, the viability, T/C (second compound 1 µM, first compound 1 µM) was 75.3%, the viability, T/C (second compound 1 µM, first compound 3.16 µM) was 79.2% and the viability, T/C (second compound 1 µM, first compound 10 µM) was 96.8%. For the same molecule, the viability, T/C [28] was 73.1%, the viability, T/C (second compound 3.16 µM, first compound 0.1 µM) was 65.4% and the viability, T/C [30] was 69.8%. For the same molecule, the viability, T/C (second compound 3.16 µM, first compound 1 µM) was 67.8%, the viability, T/C (second compound 3.16 µM, first compound 3.16 µM) was 71.5% and the viability, T/C (second compound 3.16 µM, first compound 10 µM) was 69.2%. It also gave a viability, T/C [34] of 58.9%, a viability, T/C (second compound 10 µM, first compound 0.1 µM) of 70.4% and a viability, T/C [36] of 56.4%. The viability, T/C (second compound 10 µM, first compound 1 µM) was 58.3%, the viability, T/C (second compound 10 µM, first compound 3.16 µM) was 69.8% and the viability, T/C (second compound 10 µM, first compound 10 µM) was 62%.
